Measurements reported in ChEMBL document CHEMBL1146433, “Bripiodionen, a new inhibitor of human cytomegalovirus protease from Streptomyces sp. WC76599” (J Nat Prod, 1997).

Key:
[1] = system: M109; experiment: Cytotoxicity against mouse M109 cells after 72 hrs by XTT assay; type: functional, cell-based; conditions: M109, 72 h
[2] = Inhibition of HCMV protease; set-up: species or system Human betaherpesvirus 5

IC50 [2]: 30 µM
SMILES: CC(C)C1O/C(=C2/C(=O)NC(CC(N)=O)C2=O)C=CC1C (configuration not stated) [BRIPIODIONEN]
IC50 [1]: 34 µM
